# The NIST ThermoML archive (doi:10.1016/j.fluid.2012.06.013)
# ± gives the expanded uncertainty stated by the source.
# Experiments:
# [1] = refractive index (Na D-line) (dimensionless); settings: 298.15 K; 101.33 kPa; Liquid; Standard Abbe refractometry
# [2] = Liquid; for mass density: 298.15 K, Vibrating tube method
# [3] = xn = mol fraction of the nth substance listed; settings: 298.15 K, 101 kPa, Liquid, Vibrating tube method
# [4] = Ebulliometric method (Recirculating still)
structure (smiles),measurement,setting,value
CC(=O)OCC(C)C [2-methylpropyl ethanoate],refractive index,[1],1.3882 ± 0.0005
same,mass density,[2]; 101.33 kPa,866.2 ± 0.4 kg/m3
same,vapor or sublimation pressure,"[2]; 461.03 K, Ebulliometric method (Recirculating still)",600 ± 7.5 kPa
same,Normal boiling temperature,[2]; [4],116.29 ± 1 °C
CC(=O)OCC(C)C [2-methylpropyl ethanoate] + CC(C)O,mass density,[3]; x1 = 0.051,787.4 ± 0.3 kg/m3
same,mass density,[3]; x1 = 0.126,796.2 ± 0.3 kg/m3
same,mass density,[3]; x1 = 0.204,804.7 ± 0.3 kg/m3
same,mass density,[3]; x1 = 0.235,807.9 ± 0.3 kg/m3
same,mass density,[3]; x1 = 0.352,819.1 ± 0.3 kg/m3
same,mass density,[3]; x1 = 0.407,824 ± 0.3 kg/m3
same,mass density,[3]; x1 = 0.501,831.8 ± 0.3 kg/m3
same,mass density,[3]; x1 = 0.549,835.6 ± 0.3 kg/m3
same,mass density,[3]; x1 = 0.677,845.1 ± 0.3 kg/m3
same,mass density,[3]; x1 = 0.752,850.3 ± 0.3 kg/m3
same,mass density,[3]; x1 = 0.799,853.5 ± 0.3 kg/m3
same,mass density,[3]; x1 = 0.868,857.9 ± 0.3 kg/m3
same,mass density,[3]; x1 = 0.949,863.1 ± 0.4 kg/m3
same,mass density,[3]; x1 = 1,866.2 ± 0.4 kg/m3
CC(=O)OCC(C)C [2-methylpropyl ethanoate] + CCCO,mass density,[3]; x1 = 0.053,805.4 ± 0.3 kg/m3
same,mass density,[3]; x1 = 0.092,809.3 ± 0.3 kg/m3
same,mass density,[3]; x1 = 0.145,814.5 ± 0.3 kg/m3
same,mass density,[3]; x1 = 0.196,819.1 ± 0.3 kg/m3
same,mass density,[3]; x1 = 0.249,823.5 ± 0.3 kg/m3
same,mass density,[3]; x1 = 0.302,827.6 ± 0.3 kg/m3
same,mass density,[3]; x1 = 0.346,830.9 ± 0.3 kg/m3
same,mass density,[3]; x1 = 0.444,837.6 ± 0.3 kg/m3
same,mass density,[3]; x1 = 0.482,840 ± 0.3 kg/m3
same,mass density,[3]; x1 = 0.508,841.6 ± 0.3 kg/m3
same,mass density,[3]; x1 = 0.565,845 ± 0.3 kg/m3
same,mass density,[3]; x1 = 0.613,847.7 ± 0.3 kg/m3
same,mass density,[3]; x1 = 0.719,853.3 ± 0.3 kg/m3
same,mass density,[3]; x1 = 0.751,854.9 ± 0.3 kg/m3
same,mass density,[3]; x1 = 0.804,857.5 ± 0.3 kg/m3
same,mass density,[3]; x1 = 0.854,859.8 ± 0.3 kg/m3
same,mass density,[3]; x1 = 0.889,861.4 ± 0.3 kg/m3
same,mass density,[3]; x1 = 0.909,862.3 ± 0.4 kg/m3
same,mass density,[3]; x1 = 0.953,864.2 ± 0.4 kg/m3
same,mass density,[3]; x1 = 1,866.2 ± 0.4 kg/m3
CC(=O)OCC(C)C [2-methylpropyl ethanoate] + CCO,mass density,[3]; x1 = 0.09,799.8 ± 0.3 kg/m3
same,mass density,[3]; x1 = 0.153,808.3 ± 0.3 kg/m3
same,mass density,[3]; x1 = 0.22,816.2 ± 0.3 kg/m3
same,mass density,[3]; x1 = 0.277,822.2 ± 0.3 kg/m3
same,mass density,[3]; x1 = 0.349,828.9 ± 0.3 kg/m3
same,mass density,[3]; x1 = 0.44,836.3 ± 0.3 kg/m3
same,mass density,[3]; x1 = 0.563,844.8 ± 0.3 kg/m3
same,mass density,[3]; x1 = 0.657,850.4 ± 0.3 kg/m3
same,mass density,[3]; x1 = 0.742,854.9 ± 0.3 kg/m3
same,mass density,[3]; x1 = 0.85,860 ± 0.3 kg/m3
same,mass density,[3]; x1 = 0.898,862.1 ± 0.3 kg/m3
same,mass density,[3]; x1 = 0.942,863.9 ± 0.4 kg/m3
same,mass density,[3]; x1 = 1,866.2 ± 0.4 kg/m3
CCO [ethanol],mass density,[2]; 101 kPa,785.2 ± 0.3 kg/m3
same,vapor or sublimation pressure,"[2]; 405.53 K, Ebulliometric method (Recirculating still)",600 ± 7.5 kPa
CCO [ethanol] + CC(=O)OCC(C)C,mass density,[3]; x2 = 0,785.2 ± 0.3 kg/m3
CCCO [propan-1-ol],refractive index,[1],1.3837 ± 0.0005
same,mass density,[2]; 101.33 kPa,799.6 ± 0.3 kg/m3
same,vapor or sublimation pressure,"[2]; 313.98 K, Closed cell (Static) method",8 ± 4 kPa
same,vapor or sublimation pressure,"[2]; 325.46 K, Closed cell (Static) method",14 ± 4 kPa
same,vapor or sublimation pressure,"[2]; 331.28 K, Closed cell (Static) method",18 ± 4 kPa
same,vapor or sublimation pressure,"[2]; 335.02 K, Closed cell (Static) method",22 ± 4 kPa
same,vapor or sublimation pressure,"[2]; 339.49 K, Closed cell (Static) method",28 ± 4 kPa
same,vapor or sublimation pressure,"[2]; 343.81 K, Closed cell (Static) method",34 ± 4 kPa
same,vapor or sublimation pressure,"[2]; 347.33 K, Closed cell (Static) method",40 ± 4 kPa
same,vapor or sublimation pressure,"[2]; 351.55 K, Closed cell (Static) method",48 ± 4 kPa
same,vapor or sublimation pressure,"[2]; 353.46 K, Closed cell (Static) method",52 ± 4 kPa
same,vapor or sublimation pressure,"[2]; 356.16 K, Closed cell (Static) method",58 ± 4 kPa
same,vapor or sublimation pressure,"[2]; 359.07 K, Closed cell (Static) method",66 ± 4 kPa
same,vapor or sublimation pressure,"[2]; 361.64 K, Closed cell (Static) method",72 ± 4 kPa
same,vapor or sublimation pressure,"[2]; 363.69 K, Closed cell (Static) method",78 ± 4 kPa
same,vapor or sublimation pressure,"[2]; 366.43 K, Closed cell (Static) method",88 ± 4 kPa
same,vapor or sublimation pressure,"[2]; 367.86 K, Closed cell (Static) method",92 ± 4 kPa
same,vapor or sublimation pressure,"[2]; 372.66 K, Closed cell (Static) method",110 ± 4 kPa
same,vapor or sublimation pressure,"[2]; 374.63 K, Closed cell (Static) method",118 ± 4 kPa
same,vapor or sublimation pressure,"[2]; 376.34 K, Closed cell (Static) method",126 ± 4 kPa
same,vapor or sublimation pressure,"[2]; 378.84 K, Closed cell (Static) method",138 ± 4 kPa
same,vapor or sublimation pressure,"[2]; 380.75 K, Closed cell (Static) method",148 ± 4 kPa
same,vapor or sublimation pressure,"[2]; 382.61 K, Closed cell (Static) method",158 ± 4 kPa
same,vapor or sublimation pressure,"[2]; 384.08 K, Closed cell (Static) method",166 ± 4 kPa
same,vapor or sublimation pressure,"[2]; 385.46 K, Closed cell (Static) method",174 ± 4 kPa
same,vapor or sublimation pressure,"[2]; 386.6 K, Closed cell (Static) method",182 ± 4 kPa
same,vapor or sublimation pressure,"[2]; 387.29 K, Closed cell (Static) method",186 ± 4 kPa
same,vapor or sublimation pressure,"[2]; 389.05 K, Closed cell (Static) method",198 ± 4 kPa
same,vapor or sublimation pressure,"[2]; 390.26 K, Closed cell (Static) method",206 ± 4 kPa
same,vapor or sublimation pressure,"[2]; 391.39 K, Closed cell (Static) method",214 ± 4 kPa
same,vapor or sublimation pressure,"[2]; 393.67 K, Closed cell (Static) method",230 ± 4 kPa
same,vapor or sublimation pressure,"[2]; 398.52 K, Closed cell (Static) method",260 ± 4 kPa
same,vapor or sublimation pressure,"[2]; 406.65 K, Closed cell (Static) method",340 ± 4 kPa
same,vapor or sublimation pressure,"[2]; 410.69 K, Closed cell (Static) method",382 ± 4 kPa
same,vapor or sublimation pressure,"[2]; 414.02 K, Closed cell (Static) method",420 ± 4 kPa
same,vapor or sublimation pressure,"[2]; 417.3 K, Closed cell (Static) method",460 ± 4 kPa
same,vapor or sublimation pressure,"[2]; 418.84 K, Closed cell (Static) method",475 ± 4 kPa
same,vapor or sublimation pressure,"[2]; 421.54 K, Closed cell (Static) method",512 ± 4 kPa
same,vapor or sublimation pressure,"[2]; 423.55 K, Closed cell (Static) method",545 ± 4 kPa
same,vapor or sublimation pressure,"[2]; 427.2 K, Ebulliometric method (Recirculating still)",600 ± 7.5 kPa
same,vapor or sublimation pressure,"[2]; 427.98 K, Closed cell (Static) method",612 ± 4 kPa
same,vapor or sublimation pressure,"[2]; 430.49 K, Closed cell (Static) method",655 ± 4 kPa
same,vapor or sublimation pressure,"[2]; 432.23 K, Closed cell (Static) method",685 ± 4 kPa
same,vapor or sublimation pressure,"[2]; 434.42 K, Closed cell (Static) method",722 ± 4 kPa
same,vapor or sublimation pressure,"[2]; 436.33 K, Closed cell (Static) method",755 ± 4 kPa
same,vapor or sublimation pressure,"[2]; 439.88 K, Closed cell (Static) method",825 ± 4 kPa
same,vapor or sublimation pressure,"[2]; 441.78 K, Closed cell (Static) method",865 ± 4 kPa
same,vapor or sublimation pressure,"[2]; 443 K, Closed cell (Static) method",890 ± 4 kPa
same,vapor or sublimation pressure,"[2]; 444.97 K, Closed cell (Static) method",935 ± 4 kPa
same,vapor or sublimation pressure,"[2]; 448.1 K, Closed cell (Static) method",1007 ± 4 kPa
same,vapor or sublimation pressure,"[2]; 449.6 K, Closed cell (Static) method",1043 ± 4 kPa
same,vapor or sublimation pressure,"[2]; 452.29 K, Closed cell (Static) method",1112 ± 4 kPa
same,vapor or sublimation pressure,"[2]; 453.22 K, Closed cell (Static) method",1135 ± 4 kPa
same,vapor or sublimation pressure,"[2]; 454.7 K, Closed cell (Static) method",1175 ± 5 kPa
same,vapor or sublimation pressure,"[2]; 456 K, Closed cell (Static) method",1210 ± 5 kPa
same,vapor or sublimation pressure,"[2]; 457.19 K, Closed cell (Static) method",1245 ± 5 kPa
same,vapor or sublimation pressure,"[2]; 458.54 K, Closed cell (Static) method",1282 ± 5 kPa
same,vapor or sublimation pressure,"[2]; 459.71 K, Closed cell (Static) method",1317 ± 5 kPa
same,vapor or sublimation pressure,"[2]; 460.87 K, Closed cell (Static) method",1352 ± 5 kPa
same,vapor or sublimation pressure,"[2]; 461.97 K, Closed cell (Static) method",1387 ± 5 kPa
same,vapor or sublimation pressure,"[2]; 463.21 K, Closed cell (Static) method",1425 ± 5 kPa
same,vapor or sublimation pressure,"[2]; 464.18 K, Closed cell (Static) method",1455 ± 5 kPa
same,vapor or sublimation pressure,"[2]; 465.41 K, Closed cell (Static) method",1495 ± 5 kPa
same,vapor or sublimation pressure,"[2]; 466.65 K, Closed cell (Static) method",1535 ± 5 kPa
same,vapor or sublimation pressure,"[2]; 467.43 K, Closed cell (Static) method",1562 ± 5 kPa
same,vapor or sublimation pressure,"[2]; 468.64 K, Closed cell (Static) method",1602 ± 5 kPa
same,vapor or sublimation pressure,"[2]; 469.46 K, Closed cell (Static) method",1630 ± 5 kPa
same,Normal boiling temperature,[2]; [4],97.29 ± 1 °C
CCCO [propan-1-ol] + CC(=O)OCC(C)C,mass density,[3]; x2 = 0,799.6 ± 0.3 kg/m3
CC(C)O [propan-2-ol],refractive index,[1],1.3751 ± 0.0005
same,mass density,[2]; 101.33 kPa,781.3 ± 0.2 kg/m3
same,vapor or sublimation pressure,"[2]; 410.08 K, Ebulliometric method (Recirculating still)",600 ± 7.5 kPa
same,Normal boiling temperature,[2]; [4],82.38 ± 1 °C
CC(C)O [propan-2-ol] + CC(=O)OCC(C)C,mass density,[3]; x2 = 0,781.3 ± 0.3 kg/m3
